From US20220389007A1, “INHIBITORS OF HUMAN IMMUNODEFICIENCY VIRUS REPLICATION” (VIIV HEALTHCARE UK (No. 5) LIMITED, priority 2019, published 2022)
pEC50: −log10 of the molar value.

Assays:
recombinant NL4-3 virus = assay: HIV cell culture assay (antiviral activity, luciferase readout); type: cell-based; settings: Human immunodeficiency virus 1, NL43, MT2, MT-2 cells infected for 4-5 days with recombinant NL4-3 virus carrying Renilla luciferase
Procedure, shortened: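 MT-2 cells infected for 4-5 days with NL4-3 reference virus carrying Renilla luciferase in place of part of nef, in presence of serial compound dilutions. Luciferase read with live-cell substrate; EC50 from median effect equation fit.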

[1] = Compound cytotoxicity, XTT-based colorimetric assay; type: cell-based; settings: human; uninfected MT2 cells, day 4, XTT assay
Procedure, shortened: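 Run under the antiviral-assay protocol but without virus. Viability was read on day 4 and CC50 values were derived from the readout.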

| Compound | pEC50 (recombinant NL4-3 virus) | CC50 at 4 day [1] |
| --- | --- | --- |
| Cn1nc(NS(C)(=O)=O)c2c(Cl)ccc(-n3c([C@H](Cc4cc(F)cc(F)c4)NC(=O)Cn4nc(C(F)F)c5c4C(F)(F)[C@@H]4C[C@H]54)nc4nc(-n5ccc(C(F)(F)F)n5)ccc4c3=O)c21 (atropisomer, axis not shown; (P)) [Example 65, N-((S)-1-((3P)-3-(4-chloro-1-methyl-3-(methylsulfonamido)-1H-indazol-7-yl)-4-oxo-7-(3-(trifluoromethyl)-1H-pyrazol-1-yl)-3,4-dihydropyrido[2,3-d]pyrimidin-2-yl)-2-(3,5-difluorophenyl)ethyl)-2-((3bS,4aR)-3-(difluoromethyl)-5,5-difluoro-3b,4,4a,5-tetrahydro-1H-cyclopropa[3,4]cyclopenta[1,2-c]pyrazol-1-yl)acetamide] | 10.21 | > 100 nM |
| Cn1nc(NS(C)(=O)=O)c2c(Cl)ccc(-n3c([C@H](Cc4cc(F)cc(F)c4)NC(=O)Cn4nc(C(F)F)c5c4C(F)(F)[C@@H]4C[C@H]54)nc4nc(-c5ccn(CC(F)(F)F)n5)ccc4c3=O)c21 (atropisomer, axis not shown; (P)) [Example 73, N-((S)-1-((3P)-3-(4-chloro-1-methyl-3-(methylsulfonamido)-1H-indazol-7-yl)-4-oxo-7-(1-(2,2,2-trifluoroethyl)-1H-pyrazol-3-yl)-3,4-dihydropyrido[2,3-d]pyrimidin-2-yl)-2-(3,5-difluorophenyl)ethyl)-2-((3bS,4aR)-3-(difluoromethyl)-5,5-difluoro-3b,4,4a,5-tetrahydro-1H-cyclopropa[3,4]cyclopenta[1,2-c]pyrazol-1-yl)acetamide] | 10.54 | > 100 nM |
| Cn1nc(NS(C)(=O)=O)c2c(Cl)ccc(-n3c([C@H](Cc4cc(F)cc(F)c4)NC(=O)Cn4nc(C(F)F)c5c4C(F)(F)[C@@H]4C[C@H]54)nc4nc(-n5ccnc5)ccc4c3=O)c21 (atropisomer, axis not shown; (P)) [Example 64, N-((S)-1-((3P)-3-(4-chloro-1-methyl-3-(methylsulfonamido)-1H-indazol-7-yl)-7-(1H-imidazol-1-yl)-4-oxo-3,4-dihydropyrido[2,3-d]pyrimidin-2-yl)-2-(3,5-difluorophenyl)ethyl)-2-((3bS,4aR)-3-(difluoromethyl)-5,5-difluoro-3b,4,4a,5-tetrahydro-1H-cyclopropa[3,4]cyclopenta[1,2-c]pyrazol-1-yl)acetamide] | 9.28 | > 100 nM |
| Cn1nc(NS(C)(=O)=O)c2c(Cl)ccc(-n3c([C@H](Cc4cc(F)cc(F)c4)NC(=O)Cn4nc(C(F)F)c5c4C(F)(F)[C@@H]4C[C@H]54)nc4nc(-c5nc(C(F)(F)F)ccc5F)ccc4c3=O)c21 (atropisomer, axis not shown; (P)) [Example 36, N-((S)-1-((3P)-3-(4-chloro-1-methyl-3-(methylsulfonamido)-1H-indazol-7-yl)-7-(3-fluoro-6-(trifluoromethyl)pyridin-2-yl)-4-oxo-3,4-dihydropyrido[2,3-d]pyrimidin-2-yl)-2-(3,5-difluorophenyl)ethyl)-2-((3bS,4aR)-3-(difluoromethyl)-5,5-difluoro-3b,4,4a,5-tetrahydro-1H-cyclopropa[3,4]cyclopenta[1,2-c]pyrazol-1-yl)acetamide] | 10.35 | > 100 nM |
| Cn1nc(NS(C)(=O)=O)c2c(Cl)ccc(-n3c([C@H](Cc4cc(F)cc(F)c4)NC(=O)Cn4nc(C(F)F)c5c4C(F)(F)[C@@H]4C[C@H]54)nc4nc(-c5ncncc5C(F)(F)F)ccc4c3=O)c21 (atropisomer, axis not shown; (P)) [Example 17, N-((S)-1-((3P)-3-(4-chloro-1-methyl-3-(methylsulfonamido)-1H-indazol-7-yl)-4-oxo-7-(5-(trifluoromethyl)pyrimidin-4-yl)-3,4-dihydropyrido[2,3-d]pyrimidin-2-yl)-2-(3,5-difluorophenyl)ethyl)-2-((3bS,4aR)-3-(difluoromethyl)-5,5-difluoro-3b,4,4a,5-tetrahydro-1H-cyclopropa[3,4]cyclopenta[1,2-c]pyrazol-1-yl)acetamide] | 10.42 | > 100 nM |
| Cn1nc(NS(C)(=O)=O)c2c(Cl)ccc(-n3c([C@H](Cc4cc(F)cc(F)c4)NC(=O)Cn4nc(C(F)F)c5c4C(F)(F)[C@@H]4C[C@H]54)nc4nc(-c5cc(C(F)(F)F)[nH]n5)ccc4c3=O)c21 (atropisomer, axis not shown; (P)) [Example 90, N-((S)-1-((3P)-3-(4-chloro-1-methyl-3-(methylsulfonamido)-1H-indazol-7-yl)-4-oxo-7-(5-(trifluoromethyl)-1H-pyrazol-3-yl)-3,4-dihydropyrido[2,3-d]pyrimidin-2-yl)-2-(3,5-difluorophenyl)ethyl)-2-((3bS,4aR)-3-(difluoromethyl)-5,5-difluoro-3b,4,4a,5-tetrahydro-1H-cyclopropa[3,4]cyclopenta[1,2-c]pyrazol-1-yl)acetamide] | 10.01 | > 100 nM |
| Cc1cc(C)nc(-c2ccc3c(=O)n(-c4ccc(Cl)c5c(NS(C)(=O)=O)nn(C)c45)c([C@H](Cc4cc(F)cc(F)c4)NC(=O)Cn4nc(C(F)F)c5c4C(F)(F)[C@@H]4C[C@H]54)nc3n2)n1 (atropisomer, axis not shown; (P)) [Example 11, N-((S)-1-((3P)-3-(4-chloro-1-methyl-3-(methylsulfonamido)-1H-indazol-7-yl)-7-(4,6-dimethylpyrimidin-2-yl)-4-oxo-3,4-dihydropyrido[2,3-d]pyrimidin-2-yl)-2-(3,5-difluorophenyl)ethyl)-2-((3bS,4aR)-3-(difluoromethyl)-5,5-difluoro-3b,4,4a,5-tetrahydro-1H-cyclopropa[3,4]cyclopenta[1,2-c]pyrazol-1-yl)acetamide] | 10.44 | > 100 nM |
| Cn1nc(NS(C)(=O)=O)c2c(Cl)ccc(-n3c([C@H](Cc4cc(F)cc(F)c4)NC(=O)Cn4nc(C(F)F)c5c4C(F)(F)[C@@H]4C[C@H]54)nc4ncc(-c5cccc(C(F)F)n5)cc4c3=O)c21 (atropisomer, axis not shown; (P)) [Example 3, N-((S)-1-((3P)-3-(4-chloro-1-methyl-3-(methylsulfonamido)-1H-indazol-7-yl)-6-(6-(difluoromethyl)pyridin-2-yl)-4-oxo-3,4-dihydropyrido[2,3-d]pyrimidin-2-yl)-2-(3,5-difluorophenyl)ethyl)-2-((3bS,4aR)-3-(difluoromethyl)-5,5-difluoro-3b,4,4a,5-tetrahydro-1H-cyclopropa[3,4]cyclopenta[1,2-c]pyrazol-1-yl)acetamide] | 10.29 | > 100 nM |
| Cn1nc(NS(C)(=O)=O)c2c(Cl)ccc(-n3c([C@H](Cc4cc(F)cc(F)c4)NC(=O)Cn4nc(C(F)F)c5c4C(F)(F)[C@@H]4C[C@H]54)nc4nc(-c5ccc(S(C)(=O)=O)cc5F)ccc4c3=O)c21 (atropisomer, axis not shown; (P)) [Example 32, N-((S)-1-((3P)-3-(4-chloro-1-methyl-3-(methylsulfonamido)-1H-indazol-7-yl)-7-(2-fluoro-4-(methylsulfonyl)phenyl)-4-oxo-3,4-dihydropyrido[2,3-d]pyrimidin-2-yl)-2-(3,5-difluorophenyl)ethyl)-2-((3bS,4aR)-3-(difluoromethyl)-5,5-difluoro-3b,4,4a,5-tetrahydro-1H-cyclopropa[3,4]cyclopenta[1,2-c]pyrazol-1-yl)acetamide] | 10.12 | > 100 nM |
| COc1ccnc(-c2ccc3c(=O)n(-c4ccc(Cl)c5c(NS(C)(=O)=O)nn(C)c45)c([C@H](Cc4cc(F)cc(F)c4)NC(=O)Cn4nc(C(F)F)c5c4C(F)(F)[C@@H]4C[C@H]54)nc3n2)n1 (atropisomer, axis not shown; (P)) [Example 56, N-((S)-1-((3P)-3-(4-chloro-1-methyl-3-(methylsulfonamido)-1H-indazol-7-yl)-7-(4-methoxypyrimidin-2-yl)-4-oxo-3,4-dihydropyrido[2,3-d]pyrimidin-2-yl)-2-(3,5-difluorophenyl)ethyl)-2-((3bS,4aR)-3-(difluoromethyl)-5,5-difluoro-3b,4,4a,5-tetrahydro-1H-cyclopropa[3,4]cyclopenta[1,2-c]pyrazol-1-yl)acetamide] | 10.29 | > 100 nM |
| Cn1nc(NS(C)(=O)=O)c2c(Cl)ccc(-n3c([C@H](Cc4cc(F)cc(F)c4)NC(=O)Cn4nc(C(F)F)c5c4C(F)(F)[C@@H]4C[C@H]54)nc4nc(-c5ccccc5C(F)(F)F)ccc4c3=O)c21 (atropisomer, axis not shown; (P)) [Example 25, N-((S)-1-((3P)-3-(4-chloro-1-methyl-3-(methylsulfonamido)-1H-indazol-7-yl)-4-oxo-7-(2-(trifluoromethyl)phenyl)-3,4-dihydropyrido[2,3-d]pyrimidin-2-yl)-2-(3,5-difluorophenyl)ethyl)-2-((3bS,4aR)-3-(difluoromethyl)-5,5-difluoro-3b,4,4a,5-tetrahydro-1H-cyclopropa[3,4]cyclopenta[1,2-c]pyrazol-1-yl)acetamide] | 10.22 | > 100 nM |
| COc1cc(-c2ccc3c(=O)n(-c4ccc(Cl)c5c(NS(C)(=O)=O)nn(C)c45)c([C@H](Cc4cc(F)cc(F)c4)NC(=O)Cn4nc(C(F)F)c5c4C(F)(F)[C@@H]4C[C@H]54)nc3n2)ccn1 (atropisomer, axis not shown; (P)) [Example 59, N-((S)-1-((3P)-3-(4-chloro-1-methyl-3-(methylsulfonamido)-1H-indazol-7-yl)-7-(2-methoxypyridin-4-yl)-4-oxo-3,4-dihydropyrido[2,3-d]pyrimidin-2-yl)-2-(3,5-difluorophenyl)ethyl)-2-((3bS,4aR)-3-(difluoromethyl)-5,5-difluoro-3b,4,4a,5-tetrahydro-1H-cyclopropa[3,4]cyclopenta[1,2-c]pyrazol-1-yl)acetamide] | 10.30 | > 100 nM |
